Data on 5 compounds can be found in EP4800018A1, “PAN-KRAS INHIBITOR AND USE THEREOF IN MEDICINES” (Betta Pharmaceuticals Co., Ltd., priority 2023, dated 2025).

Each structure is given as a SMILES string. Where two headings read alike, the source gives them in different places.

Format in all cases: cell-based
The target of one test is T1, KRAS G12D-cRAF (Homo sapiens, UniProt P01116, G12D).
T1 construct: expressed in transfected cells
The experiment in a line: Cellular KRAS G12D-cRAF Binding Inhibition Assay (NanoBRET, AD293 stable cells). Particulars: 3 h incubation, read-out: NanoBRET KRAS G12D. In short, it runs like this:
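AD293 cells stably expressing KRAS G12D-NanoLuc and cRAF RBD-HaloTag were seeded at 1×10^4 cells/well with NanoBRET 618 ligand overnight. BRET signal was converted to % inhibition of binding relative to max and blank wells, and IC50 came from curve fitting.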
(In general: Bioluminescence resonance energy transfer reports proximity on the nanometre scale.)

The target of a further test is T2, KRAS G12V-cRAF (Homo sapiens, UniProt P01116, G12V).
T2 construct: expressed in transfected cells
T2 sequence (P01116 1-188 isoform P01116-2 G12V): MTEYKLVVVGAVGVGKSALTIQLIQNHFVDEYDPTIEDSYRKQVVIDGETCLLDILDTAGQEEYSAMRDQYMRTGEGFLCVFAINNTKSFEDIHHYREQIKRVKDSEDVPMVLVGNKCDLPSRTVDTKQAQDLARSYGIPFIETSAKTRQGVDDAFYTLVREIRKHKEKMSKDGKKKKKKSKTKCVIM
The experiment in a line: Cellular KRAS G12V-cRAF Binding Inhibition Assay (NanoBRET, AD293 stable cells). Particulars: 3 h incubation, read-out: NanoBRET KRAS G12V. In outline:
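Live AD293 stable cells, NanoLuc donor with HaloTag NanoBRET 618 ligand acceptor added overnight. Inhibition percent from luminescence relative to max signal and medium blank; IC50 from curve fitting.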

Test [1] concerns KRAS-G12D mutant tumor cells AGS. The experiment in a line: Cell Proliferation Inhibition Assay (AGS), Cell-titer GLO, 96 h. To be noted: Homo sapiens, AGS, 96 h, read-out: AGS(G12D). In short, it runs like this:
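AGS cells (KRAS-G12D) grown in low-attachment plates were exposed to compound for 96 h at 37°C. Viability was read by CellTiter-Glo luminescence and converted to % inhibition against max and blank wells. IC50 came from curve fitting.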

The test system of test [2] is KRAS-G12V mutant tumor cells SW620. The experiment in a line: Cell Proliferation Inhibition Assay (SW620), Cell-titer GLO, 96 h. Particulars: Homo sapiens, SW-620, 96 h, read-out: SW620(G12V). In short, it runs like this: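 SW620 cells (1×10^3/well, low-attachment) were exposed to compound from 10000 to 0.03 nM (0.5% DMSO) for 96 h at 37°C. Viability was read by Cell-titer GLO luminescence. Inhibition was calculated relative to DMSO and blank wells, and IC50 obtained by curve fitting.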

[3] abbreviates: AGS cells, 96 h incubation, Cell-titer GLO.
Where [4] appears, read: SW620 cells, 96 h incubation, Cell-titer GLO.

T1 sequence (P01116 1-188 isoform P01116-2 G12D): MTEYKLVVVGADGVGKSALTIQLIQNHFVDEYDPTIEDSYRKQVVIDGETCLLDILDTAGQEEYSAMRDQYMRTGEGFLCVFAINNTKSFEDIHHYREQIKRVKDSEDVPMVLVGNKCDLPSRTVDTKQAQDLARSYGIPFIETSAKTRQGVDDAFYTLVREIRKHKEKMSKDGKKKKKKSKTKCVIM

For the compound `CC1OCCCn2c(c3c4cc(ccc42)-c2csc(n2)CC(NC(=O)C2CC2C(F)F)C(=O)N2CCCC(N2)C(=O)OCC(C)(C)C3)-c2cc(N3CCN(C4CN(C)C4)CC3)cnc21` [Example 108, (1S,2S)-2-(difluoromethyl)-N-((1^5S,6^3S,4S,Z)-1^5,10,10-trimethyl-1^2-(4-(1-methylazetidin-3-yl)piperazin-1-yl)-5,7-dioxo-1^8, 1^9,6^1,6^2,6^3,6^4,6^5 ,6^6-octahydro-1^5H,1^7H-8-oxa-1(13,15)-pyrido[3',2':7,8][1,5]oxazonino[5,6-a]indola-2(4,2)-thiazola-6(1,3)-pyridazinacycloundecaphane-4-yl)cycloprop ane-1-carboxamide], the IC50 on KRAS G12D-cRAF worked out at 6.1 nM; on KRAS G12V-cRAF, 37.9 nM; in test [1], 0.58 nM; in test [2] it was 0.28 nM.

As for `CC1OCCCn2c(c3c4cc(ccc42)-c2csc(n2)CC(NC(=O)C2CC2C(F)F)C(=O)N2CCCC(N2)C(=O)OCC(C)(C)C3)-c2cc(N3CCN(C4CCOCC4)CC3)cnc21` [Example 109, (1S,2S)-2-(difluoromethyl)-N-((1^5S,6^3S,4S,Z)-1^5,10,10-trimethyl-5,7-dioxo-1^2-(4-(tetrahydro-2H -pyran-4-yl)piperazin-1-yl)-18, 1^9,6^1,6^2,6^3 ,6^4,6^5,6^6-octahydro-1^5H,1^7H-8-oxa-1(13,15)-pyrido[3',2' :7,8][1,5]oxazonino[5,6-a]indola-2(4,2)-thiazola-6(1,3)-pyridazinacycloundecaphane-4-yl)cyclo propane-1-carboxamide], the IC50 at KRAS G12D-cRAF came to 6.2 nM; at KRAS G12V-cRAF it was 14.9 nM; in test [1] (setting [3]), 1.02 nM; in test [2] (setting [4]), 0.2 nM.

`CC1OCCCn2c(c3c4cc(ccc42)-c2csc(n2)CC(NC(=O)C2CC2C(F)F)C(=O)N2CCCC(N2)C(=O)OCC(C)(C)C3)-c2cc(N3CCN4CCOCC4C3)cnc21` [Example 110, (1S,2S)-2-(difluoromethyl)-N-((1^5S,6^3S,4S,Z)-1^2-((S)-hexahydropyrazino[2,1-c][1,4]oxazin-8(1 H)-yl)-1^5,10,10-trimethyl-5,7-dioxo-1^8,1^9,6^1,6^2,6^3,6^4,6^5,6^6-octahydro-1^5H,1^7H-8-oxa-1(13,15)-pyrido[3',2':7,8][1,5]oxazonino[5,6-a]indola-2(4,2)-thiazola-6(1,3)-pyridazinacycloundecaphane-4-yl)cyclopropane-1-carboxamide]: the IC50 turned out to be 4.17 nM on KRAS G12D-cRAF, 14 nM at KRAS G12V-cRAF, 1.12 nM in test [1] (setting [3]) and 0.15 nM in test [2] (setting [4]).

As to `CC1OCCCn2c(c3c4cc(ccc42)-c2csc(n2)CC(NC(=O)C2CC2C(F)F)C(=O)N2CCCC(N2)C(=O)OCC(C)(C)C3)-c2cc(N3CCNCC3)cnc21` [Example 112, (1S,2S)-2-(difluoromethyl)-N-((1^5S,6^3S,4S,Z)-1^5,10,10-trimethyl-5,7-dioxo-1^2-(piperazin-1-yl)-1 ^8,1^9,6^1,6^2,6^3,6^4,6^5,6^6-octahydro-1^5H,1^7H-8-oxa-1(13,15)-pyrido[3',2':7,8][1,5]oxazonino[5,6-a]indola-2(4,2)-thiazola-6(1,3)-pyridazinacycloundecaphane-4-yl)cyclopropane-1-carboxamide], the IC50 turned out to be 8.39 nM on KRAS G12D-cRAF, 34.2 nM on KRAS G12V-cRAF, 2.68 nM in test [1] (setting [3]) and 0.34 nM in test [2] (setting [4]).

On to `COC1CCN(c2cnc3c(c2)-c2c4c5cc(ccc5n2CCCOC3C)-c2csc(n2)CC(NC(=O)C2CC2C(F)F)C(=O)N2CCCC(N2)C(=O)OCC(C)(C)C4)CC1` [Example 113, (1S,2S)-2-(difluoromethyl)-N-((1^5S,6^3S,4S,Z)-1^2-(4-methoxypiperidin-1-yl)-1^5,10,10-trimethyl-5,7-dioxo-1^8,1^9,6^1,6^2,6^3,6^4,6^5,6^6-octahydro-1^5H, 1^7H-8-oxa-1(13,15)-pyrido[3',2':7,8][1,5]oxazonino[5,6-alindola-2(4,2)-thiazola-6(1,3)-pyridazinacycloundecaphane-4-yl)cyclopropane-1-carbox amide], for which the IC50 at KRAS G12D-cRAF amounted to 7.1 nM; at KRAS G12V-cRAF, 23.9 nM; in test [1] (setting [3]), 3.6 nM; in test [2] (setting [4]), 0.54 nM.
